Laboratory results reported in the CheMixHub viscosity set.
Values joined by “and” are separate entries in the source; they are usually repeats but may differ in a detail not shown here. Identical values can stand only once.

Assay: xn = mol fraction of the nth substance listed

CCCCCCCCCCO + COC(=O)OC
viscosity [mPa·s], 100 kPa
Conditions	x2 = 0.1001	x2 = 0.2001	x2 = 0.3	x2 = 0.4	x2 = 0.5002	x2 = 0.6	x2 = 0.7001	x2 = 0.8	x2 = 0.9
303.15 K	7.04	5.107	3.812	2.818	2.121	1.582	1.196	0.901	0.683
308.15 K	5.988	4.394	3.309	2.477	1.885	1.423	1.084	0.831	0.637
313.15 K	5.091	3.804	2.897	2.191	1.686	1.288	0.991	0.772	0.596
318.15 K	4.385	3.313	2.552	1.953	1.519	1.167	0.913	0.716	0.559
323.15 K	3.777	2.903	2.258	1.751	1.37	1.069	0.843	0.667	0.526

Cc1ccccc1C + COCCO
viscosity [mPa·s], 101 kPa
Conditions	298.15 K	308.15 K
x2 = 0.0517	0.769	0.666
x2 = 0.1491	0.795	0.686
x2 = 0.2491	0.83	0.714
x2 = 0.3509	0.877	0.749
x2 = 0.4485	0.934	0.79
x2 = 0.4919	0.963	0.811
x2 = 0.5537	1.009	0.845
x2 = 0.6432	1.088	0.901
x2 = 0.7525	1.206	0.983
x2 = 0.8492	1.334	1.07
x2 = 0.9547	1.506	1.185

CCCCCCCCCCCC + CCCCCCC
Conditions	viscosity
298 K, 101 kPa, x1 = 0.5	0.7879 mPa·s and 0.7868 mPa·s
298.15 K, 101.33 kPa, x2 = 0.1076	1.219 mPa·s
298.15 K, 101.33 kPa, x2 = 0.2092	1.086 mPa·s
298.15 K, 101.33 kPa, x2 = 0.3109	0.9598 mPa·s
298.15 K, 101.33 kPa, x2 = 0.4064	0.8662 mPa·s
298.15 K, 101.33 kPa, x2 = 0.5062	0.7707 mPa·s
298.15 K, 101.33 kPa, x2 = 0.6081	0.6772 mPa·s
298.15 K, 101.33 kPa, x2 = 0.7046	0.5964 mPa·s
298.15 K, 101.33 kPa, x2 = 0.8043	0.5157 mPa·s
298.15 K, 101.33 kPa, x2 = 0.9039	0.4454 mPa·s
318 K, 101 kPa, x1 = 0.5	0.6058 mPa·s and 0.6054 mPa·s

CCC#N + COC(C)=O
303.15 K, 101.33 kPa
Conditions	viscosity [mPa·s]
x1 = 0.1119	0.35
x1 = 0.2022	0.3551
x1 = 0.2958	0.3608
x1 = 0.4008	0.3657
x1 = 0.4952	0.3692
x1 = 0.5946	0.3732
x1 = 0.6967	0.3773
x1 = 0.7985	0.3811
x1 = 0.9022	0.3857

CC(C)[C@@H]1CC[C@@H](C)C[C@H]1O + CCCO
Conditions	viscosity [mPa·s]
298.15 K, 101.33 kPa, x1 = 0.5	28.39

Cc1ccccc1C + CCOC(C)=O
Conditions	viscosity [mPa·s]
298.15 K, 101 kPa, x2 = 0.0459	0.74
298.15 K, 101 kPa, x2 = 0.1515	0.698
298.15 K, 101 kPa, x2 = 0.2504	0.661
298.15 K, 101 kPa, x2 = 0.349	0.625
298.15 K, 101 kPa, x2 = 0.4636	0.586
298.15 K, 101 kPa, x2 = 0.4948	0.576
298.15 K, 101 kPa, x2 = 0.5519	0.557
298.15 K, 101 kPa, x2 = 0.6488	0.527
298.15 K, 101 kPa, x2 = 0.7509	0.496
298.15 K, 101 kPa, x2 = 0.8487	0.468
298.15 K, 101 kPa, x2 = 0.9146	0.45
303.15 K, 101.32 kPa, x2 = 0.0599	0.679
303.15 K, 101.32 kPa, x2 = 0.1789	0.638
303.15 K, 101.32 kPa, x2 = 0.2918	0.601
303.15 K, 101.32 kPa, x2 = 0.4303	0.557
303.15 K, 101.32 kPa, x2 = 0.4994	0.535
303.15 K, 101.32 kPa, x2 = 0.5537	0.52
303.15 K, 101.32 kPa, x2 = 0.6001	0.507
303.15 K, 101.32 kPa, x2 = 0.6951	0.483
303.15 K, 101.32 kPa, x2 = 0.7859	0.457
303.15 K, 101.32 kPa, x2 = 0.873	0.437
303.15 K, 101.32 kPa, x2 = 0.9583	0.414
308.15 K, 101 kPa, x2 = 0.0459	0.643
308.15 K, 101 kPa, x2 = 0.1515	0.61
308.15 K, 101 kPa, x2 = 0.2504	0.579
308.15 K, 101 kPa, x2 = 0.349	0.551
308.15 K, 101 kPa, x2 = 0.4636	0.518
308.15 K, 101 kPa, x2 = 0.4948	0.51
308.15 K, 101 kPa, x2 = 0.5519	0.495
308.15 K, 101 kPa, x2 = 0.6488	0.47
308.15 K, 101 kPa, x2 = 0.7509	0.444
308.15 K, 101 kPa, x2 = 0.8487	0.421
308.15 K, 101 kPa, x2 = 0.9146	0.406
313.15 K, 101.32 kPa, x2 = 0.2056	0.565
313.15 K, 101.32 kPa, x2 = 0.4079	0.508
313.15 K, 101.32 kPa, x2 = 0.5023	0.483
313.15 K, 101.32 kPa, x2 = 0.5988	0.459
313.15 K, 101.32 kPa, x2 = 0.8018	0.411

OCCOCCOCCO + CC(C)=O
298.1 K, 101 kPa
Conditions	viscosity [mPa·s]
x1 = 0.2	1.038
x1 = 0.4	2.75
x1 = 0.5	4.48
x1 = 0.6	7.168
x1 = 0.8	17.04

COCCOCCO + CCCO
viscosity [mPa·s], 101 kPa
Conditions	298.15 K	308.15 K	318.15 K
x1 = 0.0105	1.951	1.522	1.248
x1 = 0.0278	1.961	1.547	1.25
x1 = 0.0448	1.966	1.559	1.259
x1 = 0.0797	1.979	1.566	1.275
x1 = 0.0978	1.998	1.566	1.28
x1 = 0.1316	2.02	1.581	1.296
x1 = 0.1852	2.069	1.613	1.326
x1 = 0.2267	2.104	1.648	1.369
x1 = 0.2853	2.158	1.693	1.399
x1 = 0.3029	2.172	1.713	1.415
x1 = 0.3226	2.2	1.724	1.43
x1 = 0.3872	2.284	1.79	1.486
x1 = 0.439	2.354	1.84	1.532
x1 = 0.4811	2.416	1.888	1.573
x1 = 0.5266	2.42	1.94	1.618
x1 = 0.5519	2.528	1.969	1.643
x1 = 0.6051	2.624	2.037	1.694
x1 = 0.6805	2.748	2.138	1.778
x1 = 0.7239	2.835	2.193	1.832
x1 = 0.7925	2.967	2.29	1.917
x1 = 0.8237	3.034	2.338	1.947
x1 = 0.8896	3.163	2.439	2.027
x1 = 0.9096	3.207	2.464	2.051
x1 = 0.9417	3.265	2.509	2.086
x2 = 0.0151	3.393	2.614	2.14

CCCCCCCCCCO + CCCCCC
viscosity [mPa·s]
Conditions	298.15 K	313.15 K
101 kPa, x1 = 0.1542	0.53	0.436
101 kPa, x1 = 0.2062	0.652	0.522
101 kPa, x1 = 0.2913	0.903	0.696
101 kPa, x1 = 0.4059	1.404	1.025
101 kPa, x1 = 0.5224	2.204	1.524
101 kPa, x1 = 0.604	3.005	2.014
101 kPa, x1 = 0.7085	4.435	2.85
101 kPa, x1 = 0.8065	6.289	3.857
101 kPa, x1 = 0.8728	7.898	4.705
101.3 kPa, x1 = 0.0533	0.372	–
101.3 kPa, x1 = 0.1124	0.458	–
101.3 kPa, x1 = 0.1601	0.545	–
101.3 kPa, x1 = 0.208	0.651	–
101.3 kPa, x1 = 0.2525	0.733	–
101.3 kPa, x1 = 0.3012	0.929	–
101.3 kPa, x1 = 0.4024	1.377	–
101.3 kPa, x1 = 0.5028	2.028	–
101.3 kPa, x1 = 0.6001	2.934	–
101.3 kPa, x1 = 0.7019	4.26	–
101.3 kPa, x1 = 0.7954	5.923	–
101.3 kPa, x1 = 0.8487	7.108	–
101.3 kPa, x1 = 0.9002	8.453	–
101.3 kPa, x1 = 0.9622	10.36	–

COC=O + O=C1CCCO1
298.15 K, 101.33 kPa
Conditions	viscosity [mPa·s]
x1 = 0.0499	1.589
x1 = 0.1025	1.457
x1 = 0.153	1.367
x1 = 0.2017	1.262
x1 = 0.2492	1.175
x1 = 0.303	1.08
x1 = 0.4004	0.913
x1 = 0.4594	0.821
x1 = 0.5053	0.747
x1 = 0.5599	0.678
x1 = 0.6177	0.611
x1 = 0.7071	0.515
x1 = 0.7556	0.456
x1 = 0.8	0.426
x1 = 0.8515	0.38
x1 = 0.9005	0.344
x1 = 0.9511	0.331

CCOC(=O)OCC + CCCCO
101 kPa
Conditions	viscosity [mPa·s]
293.15 K, x1 = 0.05477	2.407
293.15 K, x1 = 0.1013	2.092
293.15 K, x1 = 0.1989	1.633
293.15 K, x1 = 0.3128	1.321
293.15 K, x1 = 0.4106	1.145
293.15 K, x1 = 0.5009	1.023
293.15 K, x1 = 0.6135	0.901
293.15 K, x1 = 0.7033	0.838
293.15 K, x1 = 0.7967	0.806
293.15 K, x1 = 0.8803	0.807
293.15 K, x1 = 0.9292	0.802
303.15 K, x1 = 0.1264	1.549
303.15 K, x1 = 0.2963	1.093
303.15 K, x1 = 0.4038	0.957
303.15 K, x1 = 0.5148	0.867
303.15 K, x1 = 0.6085	0.808
303.15 K, x1 = 0.7037	0.759
303.15 K, x1 = 0.8066	0.717
303.15 K, x1 = 0.9043	0.701
313.15 K, x1 = 0.04531	1.564
313.15 K, x1 = 0.2917	0.947
313.15 K, x1 = 0.4025	0.819
313.15 K, x1 = 0.5009	0.743
313.15 K, x1 = 0.6129	0.679
313.15 K, x1 = 0.7014	0.645
313.15 K, x1 = 0.81	0.628
313.15 K, x1 = 0.9091	0.619

CCN1CCCC1=O + O
101 kPa
Conditions	viscosity [mPa·s]
298 K, x1 = 0.5	3.855
323 K, x1 = 0.9	1.435

O=C([O-])[C@H](O)[C@@H](O)[C@H](O)[C@H](O)CO.[Na+] + O
viscosity [mPa·s], 100 kPa
Conditions	298.15 K	308.15 K	318.15 K
x1 = 0.0004	0.8985	0.7295	0.6062
x1 = 0.0007	0.9101	0.7386	0.6138
x1 = 0.001	0.9193	0.7501	0.6218

CCCCCCCCCCCC + COC(=O)OC
298.15 K, 101.3 kPa
Conditions	viscosity [mPa·s]
x2 = 0.0451	1.266
x2 = 0.0943	1.206
x2 = 0.1375	1.157
x2 = 0.225	1.079
x2 = 0.3467	0.977
x2 = 0.4784	0.877
x2 = 0.6212	0.775
x2 = 0.7364	0.697
x2 = 0.8599	0.633
x2 = 0.9441	0.602

CCCCCCCCCCO + CCCCCCCCO
viscosity [mPa·s], 101.8 kPa
Conditions	x2 = 0.1199	x2 = 0.3407	x2 = 0.5487	x2 = 0.7394	x2 = 0.918
298.15 K	11.14	10.21	9.324	8.588	7.888
308.15 K	7.791	7.162	6.608	6.092	5.658
318.15 K	5.571	5.156	4.78	4.438	4.135

CC(C)[C@@H]1CC[C@@H](C)C[C@H]1O + CCCCCCO
Conditions	viscosity [mPa·s]
298.15 K, 101.33 kPa, x1 = 0.5	22.95
